Results published in patent US12503438B2, “Compounds for the treatment of kinase-dependent disorders” (Exelixis, Inc., priority 2019, dated 2025).

Molecular target: KDR (Homo sapiens, UniProt P35968)
Assay: KDR autophosphorylation ELISA in HUVEC cells
Assay type: cell-based
Design: endogenous in cells; host or cells: HUVEC (Lonza #C2519A)
Settings: cellular activity, VEGF165-stimulated, phospho-KDR ELISA
Procedure: Human umbilical vein endothelial cells or HUVEC (Lonza #C2519A) were seeded at 2×10^4 cells/well onto 96-well plates (Corning #3904), in EGM-2 growth medium (Lonza #CC-3162) containing 1% Penicillin Streptomycin (Thermo Fisher #15140-122). HUVEC cells were incubated at 37° C., 5% CO2 for 24 h and then starved for 24 h in serum-free EBM-2 basal medium (Lonza #CC-3156) containing 1% Penicillin Streptomycin. Test compounds were serially diluted to produce an 8-point dose curve in fresh serum-free medium to a final concentration of 0.3% DMSO (vehicle) and added to the cells and incubated for 1 h. Cells were then stimulated with 100 ng/mL recombinant human VEGF165 (R&D Systems #293-VE-500) for 5 min, washed with cold PBS, and immediately lysed with 130 μL of cold 1× lysis buffer [20 mM Tris, 137 mM sodium chloride, 2 mM EDTA, 10% glycerol, 1% NP-40 alternative, 1 mM activated sodium orthovanadate, 1 mM PefaBloc SC (Sigma-Aldrich #11429868001), protease/phosphatase inhibitor tablet (Thermo Fisher #A32959)]. Lysates were collected and 100 μL/well added into the human phospho-KDR DuoSet IC ELISA (R&D Systems #DYC1766-2). Assay was performed according to manufacturer's instructions and sample phospho-KDR concentrations were extrapolated using human phospho-KDR control (R&D Systems #841421) as a standard. Positive control wells (100% activity) contained VEGF165-stimulated, DMSO-treated cell lysates. Negative control wells (0% activity) contained non-stimulated cell lysates. IC50 values were calculated by nonlinear regression analysis using a 4-parameter logistic curve fit in ActivityBase XE (IDBS).

KDR, sequence (P35968 20-1356): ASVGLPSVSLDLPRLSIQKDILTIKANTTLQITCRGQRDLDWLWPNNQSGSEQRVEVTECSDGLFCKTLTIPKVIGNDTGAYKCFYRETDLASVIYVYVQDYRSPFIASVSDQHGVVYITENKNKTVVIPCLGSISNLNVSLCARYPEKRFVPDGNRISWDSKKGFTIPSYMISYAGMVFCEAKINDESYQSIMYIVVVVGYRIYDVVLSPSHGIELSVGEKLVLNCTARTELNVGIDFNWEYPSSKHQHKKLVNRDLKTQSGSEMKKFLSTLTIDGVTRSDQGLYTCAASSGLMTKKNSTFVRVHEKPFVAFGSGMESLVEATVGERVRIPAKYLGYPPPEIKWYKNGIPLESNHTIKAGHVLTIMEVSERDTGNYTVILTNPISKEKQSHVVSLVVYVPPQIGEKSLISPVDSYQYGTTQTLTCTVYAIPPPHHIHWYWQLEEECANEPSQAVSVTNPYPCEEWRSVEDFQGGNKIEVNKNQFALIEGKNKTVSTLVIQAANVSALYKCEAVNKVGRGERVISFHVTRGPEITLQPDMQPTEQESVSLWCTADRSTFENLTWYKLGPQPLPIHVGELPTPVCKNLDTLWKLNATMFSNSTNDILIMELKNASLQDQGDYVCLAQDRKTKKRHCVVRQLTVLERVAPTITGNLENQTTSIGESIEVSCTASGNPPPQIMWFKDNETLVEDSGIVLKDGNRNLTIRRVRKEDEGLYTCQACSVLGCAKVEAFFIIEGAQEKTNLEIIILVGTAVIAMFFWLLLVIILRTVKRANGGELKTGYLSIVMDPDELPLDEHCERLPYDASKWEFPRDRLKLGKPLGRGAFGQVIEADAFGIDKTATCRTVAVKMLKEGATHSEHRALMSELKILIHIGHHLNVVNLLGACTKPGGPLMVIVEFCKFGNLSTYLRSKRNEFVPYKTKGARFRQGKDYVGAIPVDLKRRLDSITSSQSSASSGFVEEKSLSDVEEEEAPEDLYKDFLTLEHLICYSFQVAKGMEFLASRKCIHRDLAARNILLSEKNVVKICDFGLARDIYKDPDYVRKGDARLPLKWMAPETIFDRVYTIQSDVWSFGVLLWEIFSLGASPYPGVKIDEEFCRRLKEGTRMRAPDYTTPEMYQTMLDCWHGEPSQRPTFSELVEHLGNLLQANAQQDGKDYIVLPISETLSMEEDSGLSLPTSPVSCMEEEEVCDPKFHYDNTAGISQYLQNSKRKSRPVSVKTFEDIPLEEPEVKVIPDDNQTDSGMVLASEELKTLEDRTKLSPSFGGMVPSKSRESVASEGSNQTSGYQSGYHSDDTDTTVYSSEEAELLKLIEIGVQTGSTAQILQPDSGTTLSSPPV

| IC50 [nM] | Structure (SMILES) |
| --- | --- |
| 10 to 100 | O=C(Nc1ccc(F)cc1)C1(C(=O)Nc2ccc(Oc3ccnc4cc(-c5ccc(F)nc5)ccc34)cc2)CC1 [Compound 41, 1-N′-(4-Fluorophenyl)-1-N-[4-[7-(6-fluoropyridin-3-yl)quinolin-4-yl]oxyphenyl]cyclopropane-1,1-dicarboxamide] |
| 10 to 100 | N#Cc1ccc(-c2ccc3c(Oc4ccc(NC(=O)C5(C(=O)Nc6ccc(F)cc6)CC5)cc4)ccnc3c2)cn1 [Compound 42, 1-N-[4-[7-(6-Cyanopyridin-3-yl)quinolin-4-yl]oxyphenyl]-1-N′-(4-fluorophenyl)cyclopropane-1,1-dicarboxamide] |
| 100 to 300 | O=C(Nc1ccc(F)cc1)C1(C(=O)Nc2ccc(Oc3ccnc4cc(-c5cncc(F)c5)ccc34)cc2)CC1 [Compound 45, 1-N′-(4-Fluorophenyl)-1-N-[4-[7-(5-fluoropyridin-3-yl)quinolin-4-yl]oxyphenyl]cyclopropane-1,1-dicarboxamide] |
| 10 to 100 | Cc1cncc(-c2ccc3c(Oc4ccc(NC(=O)C5(C(=O)Nc6ccc(F)cc6)CC5)cc4)ccnc3c2)c1 [Compound 46, 1-N′-(4-Fluorophenyl)-1-N-[4-[7-(5-methylpyridin-3-yl)quinolin-4-yl]oxyphenyl]cyclopropane-1,1-dicarboxamide] |
| 100 to 300 | COc1cncc(-c2ccc3c(Oc4ccc(NC(=O)C5(C(=O)Nc6ccc(F)cc6)CC5)cc4)ccnc3c2)c1 [Compound 47, 1-N′-(4-Fluorophenyl)-1-N-[4-[7-(5-methoxypyridin-3-yl)quinolin-4-yl]oxyphenyl]cyclopropane-1,1-dicarboxamide] |
| ≤ 10 | O=C(Nc1ccc(F)cc1)C1(C(=O)Nc2ccc(Oc3ccnc4cc(-c5ccc(O)nc5)ccc34)cc2)CC1 [Compound 51, 1-N′-(4-Fluorophenyl)-1-N-[4-[7-(6-hydroxypyridin-3-yl)quinolin-4-yl]oxyphenyl]cyclopropane-1,1-dicarboxamide] |
| 10 to 100 | O=C(Nc1ccc(F)cc1)C1(C(=O)Nc2ccc(Oc3ccnc4cc(-c5cccnc5O)ccc34)cc2)CC1 [Compound 52, 1-N′-(4-Fluorophenyl)-1-N-[4-[7-(2-hydroxypyridin-3-yl)quinolin-4-yl]oxyphenyl]cyclopropane-1,1-dicarboxamide] |
| 100 to 300 | Cc1noc(C)c1-c1ccc2c(Oc3ccc(NC(=O)C4(C(=O)Nc5ccc(F)cc5)CC4)cc3)ccnc2c1 [Compound 53, 1-N-[4-[7-(3,5-Dimethyl-1,2-oxazol-4-yl)quinolin-4-yl]oxyphenyl]-1-N′-(4-fluorophenyl)cyclopropane-1,1-dicarboxamide] |
| 10 to 100 | Cn1nccc1-c1ccc2c(Oc3ccc(NC(=O)C4(C(=O)Nc5ccc(F)cc5)CC4)cc3)ccnc2c1 [Compound 54, 1-N′-(4-Fluorophenyl)-1-N-[4-[7-(2-methylpyrazol-3-yl)quinolin-4-yl]oxyphenyl]cyclopropane-1,1-dicarboxamide] |
| 10 to 100 | O=C(Nc1ccc(F)cc1)C1(C(=O)Nc2ccc(Oc3ccnc4cc(-c5cnoc5)ccc34)cc2)CC1 [Compound 57, 1-N′-(4-Fluorophenyl)-1-N-[4-[7-(1,2-oxazol-4-yl)quinolin-4-yl]oxyphenyl]cyclopropane-1,1-dicarboxamide] |
| 10 to 100 | O=C(Nc1ccc(F)cc1)C1(C(=O)Nc2ccc(Oc3ccnc4cc(-c5cnn(C6CCNCC6)c5)ccc34)cc2)CC1 [Compound 60, 1-N′-(4-Fluorophenyl)-1-N-[4-[7-(1-piperidin-4-ylpyrazol-4-yl)quinolin-4-yl]oxyphenyl]cyclopropane-1,1-dicarboxamide] |
| 10 to 100 | CN1CCC(n2cc(-c3ccc4c(Oc5ccc(NC(=O)C6(C(=O)Nc7ccc(F)cc7)CC6)cc5)ccnc4c3)cn2)CC1 [Compound 61, 1-N′-(4-Fluorophenyl)-1-N-[4-[7-[1-(1-methylpiperidin-4-yl)pyrazol-4-yl]quinolin-4-yl]oxyphenyl]cyclopropane-1,1-dicarboxamide] |
| ≤ 10 | CC(=O)N1CCC(n2cc(-c3ccc4c(Oc5ccc(NC(=O)C6(C(=O)Nc7ccc(F)cc7)CC6)cc5)ccnc4c3)cn2)CC1 [Compound 62, 1-N-[4-[7-[1-(1-Acetylpiperidin-4-yl)pyrazol-4-yl]quinolin-4-yl]oxyphenyl]-1-N′-(4-fluorophenyl)cyclopropane-1,1-dicarboxamide] |
| > 300 | C[Si](C)(C)C#Cc1ccc2c(Oc3ccc(NC(=O)C4(C(=O)Nc5ccc(F)cc5)CC4)cc3)ccnc2c1 [Compound 63, 1-N′-(4-Fluorophenyl)-1-N-[4-[7-(2-trimethylsilylethynyl)quinolin-4-yl]oxyphenyl]cyclopropane-1,1-dicarboxamide] |
| 100 to 300 | C#Cc1ccc2c(Oc3ccc(NC(=O)C4(C(=O)Nc5ccc(F)cc5)CC4)cc3)ccnc2c1 [Compound 64, 1-N-[4-(7-Ethynylquinolin-4-yl)oxyphenyl]-1-N′-(4-fluorophenyl)cyclopropane-1,1-dicarboxamide] |
| > 300 | O=C(Nc1ccc(F)cc1)C1(C(=O)Nc2ccc(Oc3ccnc4cc(-c5cnn[nH]5)ccc34)cc2)CC1 [Compound 65, 1-N′-(4-Fluorophenyl)-1-N-[4-[7-(1H-triazol-5-yl)quinolin-4-yl]oxyphenyl]cyclopropane-1,1-dicarboxamide] |
| 10 to 100 | O=C(Nc1ccc(F)cc1)C1(C(=O)Nc2ccc(Oc3ccnc4cc(-c5ncco5)ccc34)cc2)CC1 [Compound 66, 1-N′-(4-Fluorophenyl)-1-N-[4-[7-(1,3-oxazol-2-yl)quinolin-4-yl]oxyphenyl]cyclopropane-1,1-dicarboxamide] |
| ≤ 10 | O=C(Nc1ccc(F)cc1)C1(C(=O)Nc2ccc(Oc3ccnc4cc(-c5cn[nH]c5)ccc34)cc2)CC1 [Compound 67, 1-N′-(4-Fluorophenyl)-1-N-[4-[7-(1H-pyrazol-4-yl)quinolin-4-yl]oxyphenyl]cyclopropane-1,1-dicarboxamide] |
| ≤ 10 | O=C(Nc1ccc(F)cc1)C1(C(=O)Nc2ccc(Oc3ccnc4cc(-c5ccn[nH]5)ccc34)cc2)CC1 [Compound 68, 1-N′-(4-Fluorophenyl)-1-N-[4-[7-(1H-pyrazol-5-yl)quinolin-4-yl]oxyphenyl]cyclopropane-1,1-dicarboxamide] |
| ≤ 10 | Cn1cnc(-c2ccc3c(Oc4ccc(NC(=O)C5(C(=O)Nc6ccc(F)cc6)CC5)cc4)ccnc3c2)c1 [Compound 69, 1-N′-(4-Fluorophenyl)-1-N-[4-[7-(1-methylimidazol-4-yl)quinolin-4-yl]oxyphenyl]cyclopropane-1,1-dicarboxamide] |
| ≤ 10 | O=C(Nc1ccc(F)cc1)C1(C(=O)Nc2ccc(Oc3ccnc4cc(-c5cnc[nH]5)ccc34)cc2)CC1 [Compound 72, 1-N′-(4-Fluorophenyl)-1-N-[4-[7-(1H-imidazol-5-yl)quinolin-4-yl]oxyphenyl]cyclopropane-1,1-dicarboxamide] |
| 10 to 100 | O=C(Nc1ccc(F)cc1)C1(C(=O)Nc2ccc(Oc3ccnc4cc(-c5nnco5)ccc34)cc2)CC1 [Compound 73, 1-N′-(4-Fluorophenyl)-1-N-[4-[7-(1,3,4-oxadiazol-2-yl)quinolin-4-yl]oxyphenyl]cyclopropane-1,1-dicarboxamide] |
| ≤ 10 | O=C(Nc1ccc(F)cc1)C1(C(=O)Nc2ccc(Oc3ccnc4cc(-c5ncc[nH]5)ccc34)cc2)CC1 [Compound 74, 1-N′-(4-Fluorophenyl)-1-N-[4-[7-(1H-imidazol-2-yl)quinolin-4-yl]oxyphenyl]cyclopropane-1,1-dicarboxamide] |
| 10 to 100 | Cn1ccnc1-c1ccc2c(Oc3ccc(NC(=O)C4(C(=O)Nc5ccc(F)cc5)CC4)cc3)ccnc2c1 [Compound 75, 1-N′-(4-Fluorophenyl)-1-N-[4-[7-(1-methylimidazol-2-yl)quinolin-4-yl]oxyphenyl]cyclopropane-1,1-dicarboxamide] |
| 10 to 100 | COc1cc2c(Oc3ccc(NC(=O)C4(C(=O)Nc5ccc(F)cc5)CC4)cc3)ccnc2cc1-c1cnn(C)c1 [Compound 76, 1-N′-(4-Fluorophenyl)-1-N-[4-[6-methoxy-7-(1-methylpyrazol-4-yl)quinolin-4-yl]oxyphenyl]cyclopropane-1,1-dicarboxamide] |
| 10 to 100 | CNC(=O)c1cc2c(Oc3ccc(NC(=O)C4(C(=O)Nc5ccc(F)cc5)CC4)cc3)ccnc2cc1-c1cnn(C)c1 [Compound 77, 1-N′-(4-Fluorophenyl)-1-N-[4-[6-(methylcarbamoyl)-7-(1-methylpyrazol-4-yl)quinolin-4-yl]oxyphenyl]cyclopropane-1,1-dicarboxamide] |
| 10 to 100 | Cc1cc2c(Oc3ccc(NC(=O)C4(C(=O)Nc5ccc(F)cc5)CC4)cc3)ccnc2cc1-c1cnn(C)c1 [Compound 78, 1-N′-(4-Fluorophenyl)-1-N-[4-[6-methyl-7-(1-methylpyrazol-4-yl)quinolin-4-yl]oxyphenyl]cyclopropane-1,1-dicarboxamide] |
| ≤ 10 | CS(=O)(=O)n1cc(-c2ccc3c(Oc4ccc(NC(=O)C5(C(=O)Nc6ccc(F)cc6)CC5)cc4)ccnc3c2)cn1 [Compound 79, 1-N′-(4-Fluorophenyl)-1-N-[4-[7-(1-methylsulfonylpyrazol-4-yl)quinolin-4-yl]oxyphenyl]cyclopropane-1,1-dicarboxamide] |
